Laboratory results taken from the METLIN SMRT retention time set (Domingo-Almenara et al. 2019).

Assay: gradient 5% acetonitrile 3 min, to 50% in 2 min, to 85% in 15 min, held 3 min, 100 µL/min
Details: column: Zorbax Extend-C18 2.1 x 50 mm; eluents: water / acetonitrile, 0.1% formic acid
Procedure, shortened: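 The mobile phases were water and acetonitrile, each with 0.1% formic acid, pumped at 100 μL/min through a Zorbax Extend-C18 column (2.1 × 50 mm, 1.8 μm). Pure standards were injected as mixtures of ~100 molecules and detected by a quadrupole time-of-flight mass spectrometer in positive and negative ionization mode. Retention time came from computationally picked adduct peaks, each inspected by hand.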

SMILES | RP-LC retention time [s]
Cc1ccc(CCNC(=O)c2cc3n(n2)CC(C)(C(=O)NCc2ccccc2)N(C)C3=O)cc1 (configuration not stated) | 815
CCOc1ccccc1NC(=O)COc1nc(CC)nc2ccccc12 | 884
CCc1nc(OCC(=O)NCc2ccc(C)cc2)c2ccccc2n1 | 798
CC(NC(=O)C(=O)N1CCOCC1)C(c1cccs1)N1CCN(Cc2ccccc2)CC1 (configuration not stated) | 600
CCCN(CC1CCOC1)C(=O)Nc1cc(Cl)ccc1OC (configuration not stated) | 961
COc1ccccc1-c1nc(-c2cccc(-c3ccnn3C)c2)no1 | 1020
Cc1cc(NC(=O)c2c(F)cccc2Cl)n(-c2nc(-c3ccccc3)cs2)n1 | 1330
O=C(Cc1csc(Nc2ccc(Cl)cn2)n1)Nc1ccc(OC(F)(F)F)cc1 | 1030
CCN1C(=O)COc2ccc(-c3noc(-c4ccccc4C(F)(F)F)n3)cc21 | 1140
COc1ccc(-c2noc(-c3ccc(NC(=O)c4cccs4)cc3)n2)cc1 | 1140
CCOc1ccc(-c2nc(-c3ccc4nnn(CC)c4c3)no2)cc1 | 1140
Cc1nc2c(sc3nc(-c4ccccc4)ccc32)c(=O)n1CC(=O)Nc1cc(F)cc(F)c1 | 1270
CCc1nn(CC)c(=O)c2cc(S(=O)(=O)N3CCC(Cc4ccccc4)CC3)cn12 | 1140
O=C1CC(c2cccs2)Cc2nc(N3CCN(c4ccccn4)CC3)ncc21 (configuration not stated) | 674
CCOc1ccc(C(=O)N2CCC3(CC2)NC(=O)c2cccc(Cl)c2N3)cc1 | 790
CC(C)OC(=O)c1c(-c2ccccc2)c(-c2ccccc2)n[nH]c1=O | 910
CC(C)C(=O)Nc1ccc(C2(C(=O)NCc3ccc(F)c(Cl)c3)CCC2)cc1 | 927
COc1cc(NC(=O)c2sc(-c3cn(C(C)C)c4ncccc34)nc2C)cc(OC)c1 | 1030
CCCCCC(=O)Nc1nc(-c2ccc(C)cc2C)cs1 | 1190

SMILES | RP-LC retention time [s]
CC1CCN(CCCNC(=O)C2c3ccccc3C(=O)N(C)C2c2cccs2)CC1 (configuration not stated) | 624
Cc1cccc(NC(=O)Nc2cnn(-c3ncncc3N3CCOCC3)c2)c1C | 612
Cc1nc(-c2csc(S(=O)(=O)N3CCCC(C(=O)N4CCCCCC4)C3)c2)no1 (configuration not stated) | 902
Cc1noc([C@@H]2CN(C(=O)CC(C)(C)C)C[C@H]2CO)n1 | 644
CCOC(=O)c1c(C)[nH]c(C(=O)N2CCC(CC(=O)NCc3ccc(CC)cc3)CC2)c1C | 869
CN1c2ccc(F)cc2C(=O)NC12CCN(C(=O)c1ccc(F)c(F)c1)CC2 | 776
CCNC(=O)N1CCOc2cc(C)ccc21 | 768
CC1=C(c2ccccc2)S(=O)(=O)N=C1N1CCCN(C(=O)c2ccccn2)CC1 | 693
CC(=O)Nc1ccc(S(=O)(=O)N2CCCn3nc(-c4cccc(Cl)c4)cc3C2)cc1 | 910
CCOc1ccccc1C(=O)N(CC)c1nc(-c2ccc(C)cc2)cs1 | 1420
CCCCOc1ccc(-c2cc3c4nnc(CCC(=O)NCCc5cccs5)n4ccn3n2)cc1 | 943
CNC(=O)[C@@H]1CN(C(=O)c2ccc3c(c2)OCO3)C[C@H]1c1n[nH]c(C)n1 | 580
CN(C1CCc2nn(CC3CC3)c(=O)n2CC1)S(=O)(=O)c1cccc(F)c1 (configuration not stated) | 777
CC(C)Cn1c(=O)c(C(=O)NCCCN2CCCCC2)nc2cccnc21 | 642
CCCN(C(=O)c1cccc(OC)c1)c1nc(-c2ccccc2)cs1 | 1350
Cn1cc(C(=O)N2CC(c3nc(CCOCC4CCOCC4)no3)C2)cn1 | 663
COCc1nn(C)c2c1CN(S(=O)(=O)c1cccc(C#N)c1)CC2 | 676
O=C(CSc1nnc(-c2cccnc2)o1)c1cccc([N+](=O)[O-])c1 | 724
